Measured values as given in patent EP0330824A1, “Use of quinolizine and quinolizinone derivatives in the manufacture of medicaments for the treatment of cardiac arrhythmias” (MERRELL DOW PHARMACEUTICALS INC., priority 1988, dated 1989).
Where a name gives a salt, the structure may show the parent alone.

How the values were obtained:
[1] = system: Von Bezold-Jarisch Reflex induced by 5-HT; assay: Von Bezold-Jarisch Reflex induced by intravenous 5-HT; assay type: in vivo; conditions: rat
Excerpt: The activity of these compounds against 5-HT can be assessed in vivo by measurement of the effect of the compound on the Von Bezold-Jarisch Reflex induced by 5-HT injected intravenously into the rat (see Paintal A.S., Physiol. Rev. 53, 159-227, 1973; J.R. Fozard, Naunyn-Schmiedeberg's Arch. Pharmacol., 326, 1984, 36-44). The transient cardiac slowing arises from an increased afferent vagus activity arising from stimulation by 5-HT of sensory afferent fibers in and around the heart.

[2] = system: action potential of isolated cardiac tissue; assay: Action potential of isolated cardiac tissue (Purkinje fiber or papillary muscle); parameters: species or system dog or guinea pig; conditions: 10⁻⁸ to 10⁻⁵ moles/liter in tissue bath, stimulation at 1 Hz
Excerpt: A gas mixture comprised of 95% O₂ and 5% CO₂ is bubbled through the solution while it is maintained within a pH range of from 7.3-7.4.
The heart of an anesthetized mongrel dog is surgically removed and the Purkinje fibers are dissected from either of the ventricles. Alternately, papillary muscles are removed from the right cardiac ventricle of a guinea pig. A Purkinje fiber or a papillary muscle is then placed in a tissue bath which is continuously perfused with modified Tyrode's solution.¹
The electrophysiology of the cardiac tissue is monitored by conventional glass microelectrodes. One microelectrode is inserted into a cell in the cardiac muscle fiber and a ground electrode is positioned in the tissue bath. A conventional oscilloscope is utilized to visualize the action potential waveforms of the cardiac cell. […]
At this point, representative control action potentials are recorded and analyzed by a computer.
After establishing a control action potential, the test compound is introduced into the Modified Tyrode's solution in a quantity such that the test compound is present within the tissue bath in a range of from 10⁻⁸ to 10⁻⁵ moles/liter. After the effect of the test compound has reached a steady state, the action potential is again recorded and analyzed in the manner described above.

SMILES | suppression of the Von Bezold-Jarisch Reflex response ([1]; 0.01-0.1 mg/kg given intravenously) | suppression of the Von Bezold-Jarisch Reflex response ([1]; 0.25-1 mg/kg given orally) | rate of maximal depolarization of the action potential [2]
O=C(OC1CC2CC3CC(C1)N2CC3=O)c1c[nH]c2ccccc12 (stereo not drawn) [endo-hexahydro-8-(3-indolylcarbonyloxy)-2,6-methano-2H-quinolizin-3(4H)-one hydrochloride] | suppressed the response dose-dependently | suppressed the response dose-dependently | 
O=C(OC1CC2CC3CC(C1)N2CC3=O)c1c[nH]c2ccccc12 (stereo not drawn) [endo-hexahydro-8-(3-indolylcarbonyloxy)-2,6-methano-2H-quinolizin-3(4H)-one] |  |  | capable of delaying the rate of maximal depolarization of the action potential
